# Earlier results in patent US20250325469A1, “Inhibitors of atp synthase - cosmetic and therapeutic uses” (priority 2021, published 2025).
# Where two headings read alike, the source gives them in different places. Where no end group is shown, it is not given here. [ ]: non-standard residue; d: D form.
# How the values were obtained:
# [1] = cited from earlier work
# [2] = 5.5 (±1.7) ug/kg/min i.v. with inhaled nitric oxide (5 p.p.m.), across all subjects [183]; cited from earlier work
# [3] = cited from earlier work; remark: listed apart in the source
# [4] = cited from earlier work; remark: listed apart in the source
# cells [5] = conditions: cited from earlier work
# cells [6] = conditions: variant with side-chain chiral amino acids swopped; cited from earlier work
# [7] = target: bovine F1F0 ATP hydrolysis (Bos taurus, UniProt P00829+P19483); conditions: cited from earlier work
# [8] = COPD patients, 100 mg oral daily for 1 year [168]
# [9] = 7.47 ug/kg/min for 2 hours (60 mg), at the end of the infusion period
# [10] = COPD patients, 100 mg oral daily for 1 year, at year end
molecule,measurement,setting,value
C=CCNc1nc(NCC=C)nc(N2CCN(C(c3ccc(F)cc3)c3ccc(F)cc3)CC2)n1 [almitrine dimesylate],adverse effects,"[1]; COPD patients, 75 mg oral daily for 6 months",no adverse effects
same,increase in occurrence of a nervous system disorder vs placebo control,[1]; [8],4%
same,increase in occurrence of paraesthesia vs placebo control,[1]; [8],5%
same,increase in occurrence of polyneuropathy vs placebo control,[1]; [8],3.6%
same,"incidence of peripheral neuropathy, almitrine vs control group","[1]; COPD patients, 100-200 mg daily for a year [151]",5 times higher
same,"time at which peripheral neuropathy started to manifest, on average","[1]; COPD patients, 100-200 mg daily for a year, in a minority [151]",7 months
same,safety,"[1]; healthy subjects, 400 mg oral per day, short term [163]",safe
same,increase of arterial pO2,[2],> 30%
same,lowest observed almitrine plasma level,[3]; [9],242 ng/mL
same,mean almitrine plasma level,[3]; [9],327 ng/mL
same,mean almitrine plasma level,"[3]; 7.47 ug/kg/min for 2 hours, 15 minutes afterwards",157 ng/mL
same,mean almitrine plasma level,"[3]; 7.47 ug/kg/min for 2 hours, 30 minutes afterwards",154 ng/mL
same,mean almitrine plasma level,"[3]; 7.47 ug/kg/min for 2 hours, 60 minutes afterwards",105 ng/mL
same,mean almitrine plasma level,"[3]; 7.47 ug/kg/min for 2 hours, 120 minutes afterwards",67 ng/mL
same,mean almitrine plasma level,"[3]; 7.47 ug/kg/min for 2 hours, 600 minutes afterwards",55 ng/mL
same,plasma [almitrine],"[4]; COPD patients, 50 mg twice daily for 8 weeks, 2 weeks after the study",104 ng/mL
same,plasma [almitrine] before the morning dose,"[4]; COPD patients, 50 mg twice daily, day 14",93 ng/mL
same,plasma [almitrine] before the morning dose,"[4]; COPD patients, 50 mg twice daily, day 28",134 ng/mL
same,plasma [almitrine] before the morning dose,"[4]; COPD patients, 50 mg twice daily, day 42",148 ng/mL
same,plasma [almitrine] before the morning dose,"[4]; COPD patients, 50 mg twice daily, day 56",171 ng/mL
same,average trough plasma [almitrine],"[4]; COPD patients, 75 mg oral daily for 6 months, at study end",302 ng/mL
same,mean plasma [almitrine],"[4]; COPD patients, 100 mg oral daily 2 months then 1 month none, cycle for 1 year, at end",285 ng/mL
same,mean plasma [almitrine],[4]; [10],409.35 ng/mL
same,trough plasma [almitrine],[4]; [10],301.8 ng/mL
same,plasma [almitrine],"[4]; COPD patients, 100 mg twice daily for 8 weeks, 2 weeks after the study",311 ng/mL
same,plasma [almitrine] before the morning dose,"[4]; COPD patients, 100 mg twice daily, day 14",268 ng/mL
same,plasma [almitrine] before the morning dose,"[4]; COPD patients, 100 mg twice daily, day 28",409 ng/mL
same,plasma [almitrine] before the morning dose,"[4]; COPD patients, 100 mg twice daily, day 42",442 ng/mL
same,plasma [almitrine] before the morning dose,"[4]; COPD patients, 100 mg twice daily, day 56",572 ng/mL
same,plasma [almitrine],"[4]; COPD patients, 100-200 mg daily, those presenting peripheral neuropathy, at 3 months",344 ng/mL
same,plasma [almitrine],"[4]; COPD patients, 100-200 mg daily, those presenting peripheral neuropathy, at 12 months",617 ng/mL
same,plasma [almitrine],"[4]; COPD patients, 100-200 mg daily, those without peripheral neuropathy, at 3 months",249 ng/mL
same,plasma [almitrine],"[4]; COPD patients, 100-200 mg daily, those without peripheral neuropathy, at 12 months",387 ng/mL
same,"plasma [almitrine], two 50 mg doses per day vs a single 100 mg oral dose","[4]; COPD patients, long term [167]",2 to 3 times higher
same,time of peak plasma concentration of almitrine after consuming,"[4]; human, oral [151]",3.5 ± 0.7 h
same,oral dose bioavailable,[4]; on average across subjects,85%
Kkwkmrrnqfwvkvqr (K[dK][dW][dK][dM][dR][dR][dN][dQ][dF][dW][dV][dK][dV][dQ][dR]; not fully specified (residue 1); printed as Kkwkmrrnqfwvkvqr; also: retroinverse) [Retroinverse penetratin],cellular toxicity,cells [5],some cellular toxicity
same,cellular penetration compared with penetratin,cells [6],greater cellular penetration than penetratin
"yeast IF1 protein: IF1 protein sequence from yeast (protein, UniProt P01097 23-85, looked up) F(1)-ATPase inhibitor IF(1), …: SEGSTGTPRGSGSEDSFVKRERATEDFFVRQREKEQLRHLKEQLEKQRKKIDSLENKIDSMTK",inhibition of bovine F1F0 ATP hydrolysis,[7],can inhibit
